Assay results from ChEMBL document CHEMBL1201862, “PubChem BioAssay data set” (2004).
Calls of active or inactive are those of the source.

What was measured:
[1] = target: T1, Tyrosine-protein phosphatase non-receptor type 22 (Homo sapiens, UniProt Q9Y2R2); assay: SAR LYP1 Fluorescent Assay using pCAP substrate for In Vitro dose response studies - Set 2. [Related pubchem assays (depositor defined):AID1779, AID1784, AID2135, AID449727]; type: functional
T1 sequence (Q9Y2R2 whole entry): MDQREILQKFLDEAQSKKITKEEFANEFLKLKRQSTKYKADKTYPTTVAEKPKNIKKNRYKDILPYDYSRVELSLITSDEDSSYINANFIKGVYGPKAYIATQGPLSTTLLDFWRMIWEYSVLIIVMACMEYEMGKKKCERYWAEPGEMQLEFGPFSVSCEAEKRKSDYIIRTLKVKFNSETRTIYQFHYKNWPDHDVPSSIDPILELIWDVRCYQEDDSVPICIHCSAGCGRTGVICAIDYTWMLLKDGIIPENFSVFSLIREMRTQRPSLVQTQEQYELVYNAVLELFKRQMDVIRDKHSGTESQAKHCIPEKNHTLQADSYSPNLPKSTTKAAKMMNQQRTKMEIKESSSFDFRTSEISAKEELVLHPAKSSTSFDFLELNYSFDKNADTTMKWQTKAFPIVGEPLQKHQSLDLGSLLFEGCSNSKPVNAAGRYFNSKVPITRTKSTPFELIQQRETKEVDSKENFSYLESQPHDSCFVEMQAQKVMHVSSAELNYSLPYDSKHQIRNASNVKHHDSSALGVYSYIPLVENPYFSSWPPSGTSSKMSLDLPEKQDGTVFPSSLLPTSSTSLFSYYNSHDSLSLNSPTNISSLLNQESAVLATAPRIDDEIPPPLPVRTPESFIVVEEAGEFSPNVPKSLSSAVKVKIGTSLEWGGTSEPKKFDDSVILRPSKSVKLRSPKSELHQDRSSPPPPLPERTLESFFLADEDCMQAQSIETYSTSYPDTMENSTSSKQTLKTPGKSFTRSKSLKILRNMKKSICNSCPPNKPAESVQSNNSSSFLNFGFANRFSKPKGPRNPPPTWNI

[2] = target: T2, Small ubiquitin-related modifier 1 (Homo sapiens, UniProt P63165); assay: inhibitors of SUMO1 partner interactions, dose response, biochemical, FRET (AID 624383); type: functional; details: read-out: IC50_Mean
T2 sequence (P63165 whole entry): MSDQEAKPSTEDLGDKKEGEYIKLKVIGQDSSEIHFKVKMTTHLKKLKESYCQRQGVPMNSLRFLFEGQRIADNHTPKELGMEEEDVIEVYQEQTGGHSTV

[3] = target: T1, Tyrosine-protein phosphatase non-receptor type 22; assay: SAR LYP1 Fluorescent Assay using OMFP substrate for In Vitro dose response studies - Set 3. [Related pubchem assays (depositor defined):AID1779, AID1784, AID2140, AID2686]; type: functional
[4] = target: T2, Small ubiquitin-related modifier 1; assay: inhibitors of SUMO1 peptide binding, dose response, biochemical, fluorescence polarization, uHTS hits (AID 624382); type: functional; details: read-out: IC50_Mean
[5] = target: T3, Tyrosine-protein phosphatase non-receptor type 7 (Homo sapiens, UniProt P35236); assay: HePTP (PTPN7) phosphatase inhibitor potency, SAR follow-up, biochemical, set 2 (AID 449736); type: functional
T3 sequence (P35236 whole entry): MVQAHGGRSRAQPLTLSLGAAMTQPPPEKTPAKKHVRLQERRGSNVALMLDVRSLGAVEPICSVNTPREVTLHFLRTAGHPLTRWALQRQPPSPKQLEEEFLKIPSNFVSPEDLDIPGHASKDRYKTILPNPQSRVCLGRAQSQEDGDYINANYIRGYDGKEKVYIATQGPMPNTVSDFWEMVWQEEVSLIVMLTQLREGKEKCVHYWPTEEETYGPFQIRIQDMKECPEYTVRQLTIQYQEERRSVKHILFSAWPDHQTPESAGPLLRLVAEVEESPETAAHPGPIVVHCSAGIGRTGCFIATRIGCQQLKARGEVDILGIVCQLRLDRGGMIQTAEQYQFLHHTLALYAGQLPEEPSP

[6] = target: T1, Tyrosine-protein phosphatase non-receptor type 22; assay: LYP (PTPN22) phosphatase inhibitor potency, SAR follow-up, biochemical, pCAP fluorogenic substrate, fluorescence, set 3 (AID 449727); type: functional
[7] = target: T1, Tyrosine-protein phosphatase non-receptor type 22; assay: SAR LYP1 Fluorescent Assay using OMFP substrate for In Vitro dose response studies - Set 2. [Related pubchem assays (depositor defined):AID1779, AID1784, AID2140, AID449726, AID488869]; type: functional
SUMO-activating enzyme [8] = target: T4, SUMO-activating enzyme (Homo sapiens, UniProt Q9UBT2); assay: SUMOylation inhibitor hit validation, confirmation, SUMOylation inhibitor project, biochemical, AlphaScreen (AID 2018); type: functional
T4 sequence (Q9UBE0 whole entry): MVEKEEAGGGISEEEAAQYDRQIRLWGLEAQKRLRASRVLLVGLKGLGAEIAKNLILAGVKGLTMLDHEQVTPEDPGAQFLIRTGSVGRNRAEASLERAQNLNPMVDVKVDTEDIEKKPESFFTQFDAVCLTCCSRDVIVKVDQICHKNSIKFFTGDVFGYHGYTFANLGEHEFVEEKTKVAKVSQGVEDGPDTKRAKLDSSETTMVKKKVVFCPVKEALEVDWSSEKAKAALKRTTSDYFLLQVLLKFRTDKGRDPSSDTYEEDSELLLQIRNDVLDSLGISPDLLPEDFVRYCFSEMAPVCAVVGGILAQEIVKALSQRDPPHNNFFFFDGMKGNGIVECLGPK
T4 sequence (Q9UBT2 whole entry): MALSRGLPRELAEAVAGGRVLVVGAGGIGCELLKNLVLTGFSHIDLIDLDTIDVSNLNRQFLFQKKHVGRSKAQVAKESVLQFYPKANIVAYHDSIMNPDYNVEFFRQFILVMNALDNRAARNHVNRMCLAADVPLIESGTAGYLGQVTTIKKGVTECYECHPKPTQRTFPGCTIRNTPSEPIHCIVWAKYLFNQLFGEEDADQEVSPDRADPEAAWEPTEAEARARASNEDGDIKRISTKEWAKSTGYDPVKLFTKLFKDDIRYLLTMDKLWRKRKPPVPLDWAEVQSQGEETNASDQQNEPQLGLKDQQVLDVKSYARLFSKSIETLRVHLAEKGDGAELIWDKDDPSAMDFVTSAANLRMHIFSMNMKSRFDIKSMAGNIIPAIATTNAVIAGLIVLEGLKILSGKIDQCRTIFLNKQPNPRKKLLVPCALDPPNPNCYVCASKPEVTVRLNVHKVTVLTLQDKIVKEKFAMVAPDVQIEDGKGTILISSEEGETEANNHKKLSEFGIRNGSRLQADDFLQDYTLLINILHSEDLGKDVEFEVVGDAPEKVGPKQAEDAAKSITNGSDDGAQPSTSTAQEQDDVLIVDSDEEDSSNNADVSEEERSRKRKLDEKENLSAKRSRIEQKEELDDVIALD

[9] = target: T5, Tyrosine-protein phosphatase non-receptor type 12 (Homo sapiens, UniProt Q05209); assay: SAR Selectivity Analysis of small molecule inhibitors of PEST using pCAP in a fluorescence assay. [Related pubchem assays (depositor defined):AID1779, AID1784, AID2135]; type: functional
T5 sequence (Q05209 whole entry): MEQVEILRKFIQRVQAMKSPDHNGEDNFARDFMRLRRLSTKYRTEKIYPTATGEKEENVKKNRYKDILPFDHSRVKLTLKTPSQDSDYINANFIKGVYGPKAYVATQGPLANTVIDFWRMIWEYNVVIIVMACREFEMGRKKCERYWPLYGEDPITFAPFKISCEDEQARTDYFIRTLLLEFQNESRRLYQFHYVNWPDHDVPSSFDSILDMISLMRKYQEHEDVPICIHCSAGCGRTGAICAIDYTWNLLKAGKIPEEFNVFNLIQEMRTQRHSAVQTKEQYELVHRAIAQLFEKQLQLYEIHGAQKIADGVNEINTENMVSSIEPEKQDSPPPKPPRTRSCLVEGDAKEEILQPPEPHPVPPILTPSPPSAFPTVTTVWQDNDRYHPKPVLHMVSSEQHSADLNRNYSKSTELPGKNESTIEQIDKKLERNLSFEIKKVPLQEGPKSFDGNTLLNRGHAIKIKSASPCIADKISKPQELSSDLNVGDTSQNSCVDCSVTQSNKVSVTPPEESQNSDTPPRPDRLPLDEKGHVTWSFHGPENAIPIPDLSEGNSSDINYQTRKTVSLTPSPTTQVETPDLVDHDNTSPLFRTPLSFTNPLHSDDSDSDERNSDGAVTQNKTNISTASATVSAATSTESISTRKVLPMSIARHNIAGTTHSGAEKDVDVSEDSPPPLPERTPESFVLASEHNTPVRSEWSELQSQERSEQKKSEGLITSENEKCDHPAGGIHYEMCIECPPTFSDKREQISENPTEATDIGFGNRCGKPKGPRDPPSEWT

SUMO-activating enzyme [10] = target: T4, SUMO-activating enzyme; assay: inhibitors of in vitro SUMOylation cascade, primary screen, biochemical, HTRF, uHTS (AID 2006); type: protein-complex assay
[11] = target: T6, Kappa-type opioid receptor (Homo sapiens, UniProt P41145); assay: SAR analysis of small molecule antagonists of the kappa opioid receptor via a luminescent beta-arrestin assay - Set 4. [Related pubchem assays (depositor defined):AID1777, AID1778, AID1785, AID1786, AID1966, AID2133, AID2136, AID2285]; type: functional
T6 sequence (P41145 whole entry): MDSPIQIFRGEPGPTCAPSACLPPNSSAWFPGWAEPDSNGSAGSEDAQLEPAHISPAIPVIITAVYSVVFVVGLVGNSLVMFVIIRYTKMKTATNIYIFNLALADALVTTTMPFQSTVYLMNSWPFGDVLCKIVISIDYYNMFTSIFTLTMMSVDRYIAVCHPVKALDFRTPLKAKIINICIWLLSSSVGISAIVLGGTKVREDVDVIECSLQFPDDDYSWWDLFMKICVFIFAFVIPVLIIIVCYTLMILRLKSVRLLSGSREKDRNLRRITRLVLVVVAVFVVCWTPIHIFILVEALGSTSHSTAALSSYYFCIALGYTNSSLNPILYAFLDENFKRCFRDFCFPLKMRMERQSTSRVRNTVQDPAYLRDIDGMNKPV

[12] = target: T6, Kappa-type opioid receptor; assay: SAR analysis of small molecule antagonists of the kappa opioid receptor via a luminescent beta-arrestin assay - Set 5. [Related pubchem assays (depositor defined):AID1778, AID1785]; type: functional
cells = type: functional
[13] = Vero E6 cell cytotoxicity, dose response, cytotoxicity control for non-replicating M. tuberculosis project, secondary assay (AID 492998); type: functional, VeroE6; details: Vero C1008
[14] = target: Lysine-specific demethylase 4A (Homo sapiens, UniProt O75164); assay: JMJD2A histone demethylase inhibitors, dose response, selectivity assay for GASC-1 inhibitor project, biochemical, DELFIA europium, cherry-picked samples (AID 488840)
Lysine-specific demethylase 4A, sequence (O75164 whole entry): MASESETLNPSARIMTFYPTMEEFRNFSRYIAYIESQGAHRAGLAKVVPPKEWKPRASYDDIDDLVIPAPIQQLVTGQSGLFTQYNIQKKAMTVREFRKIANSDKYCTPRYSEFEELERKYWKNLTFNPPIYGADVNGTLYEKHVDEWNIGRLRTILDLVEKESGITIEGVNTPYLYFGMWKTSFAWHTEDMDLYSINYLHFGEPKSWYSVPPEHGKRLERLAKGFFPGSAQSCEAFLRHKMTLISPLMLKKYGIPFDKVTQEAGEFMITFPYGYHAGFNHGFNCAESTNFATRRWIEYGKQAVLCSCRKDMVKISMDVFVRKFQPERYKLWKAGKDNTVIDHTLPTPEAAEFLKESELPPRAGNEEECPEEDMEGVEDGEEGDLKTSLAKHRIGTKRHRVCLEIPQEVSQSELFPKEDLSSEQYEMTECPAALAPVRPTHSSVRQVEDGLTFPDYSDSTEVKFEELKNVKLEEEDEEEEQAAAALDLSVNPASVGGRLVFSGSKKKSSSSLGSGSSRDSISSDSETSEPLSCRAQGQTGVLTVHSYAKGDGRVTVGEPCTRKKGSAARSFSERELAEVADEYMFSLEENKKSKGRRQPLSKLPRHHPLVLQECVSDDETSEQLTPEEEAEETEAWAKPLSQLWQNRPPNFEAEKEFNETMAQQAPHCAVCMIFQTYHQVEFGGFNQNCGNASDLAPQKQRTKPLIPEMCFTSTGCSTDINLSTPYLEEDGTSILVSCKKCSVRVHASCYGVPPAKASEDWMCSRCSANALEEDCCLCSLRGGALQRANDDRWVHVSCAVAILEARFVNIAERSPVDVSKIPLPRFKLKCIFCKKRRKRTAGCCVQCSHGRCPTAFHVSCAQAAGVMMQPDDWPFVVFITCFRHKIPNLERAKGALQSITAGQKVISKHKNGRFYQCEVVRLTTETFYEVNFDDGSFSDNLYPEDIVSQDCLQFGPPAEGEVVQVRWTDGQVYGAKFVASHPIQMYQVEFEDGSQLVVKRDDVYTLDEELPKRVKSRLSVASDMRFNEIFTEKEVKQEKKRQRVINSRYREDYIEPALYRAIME

[15] = THP-1 cell cytotoxicity, dose response, cytotoxicity control for non-replicating M. tuberculosis project (AID 489025); type: functional
BJ [16] = assay: cytotoxicity toward BJ-TERT fibroblasts, dose response, cell-based, RAS-independent, luminescence (AID 1933); type: functional; details: Homo sapiens
Nonstructural protein 1 = Nonstructural protein 1 (Influenza A virus, UniProt Q194T2); type: functional, Influenza A virus (A/California/07/2009(H1N1))
Nonstructural protein 1, sequence (Q194T2 whole entry): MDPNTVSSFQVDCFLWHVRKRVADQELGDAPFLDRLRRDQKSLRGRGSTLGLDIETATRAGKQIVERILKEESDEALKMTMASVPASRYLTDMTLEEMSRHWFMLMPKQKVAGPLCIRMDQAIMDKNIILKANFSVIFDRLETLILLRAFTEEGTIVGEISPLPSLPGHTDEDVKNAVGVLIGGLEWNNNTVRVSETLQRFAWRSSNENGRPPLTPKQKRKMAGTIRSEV

INS1 = assay: beta cell apoptosis inhibitors, cytokine rescue, dose response, luminescence, retest (AID 449756); type: functional, cell-based; details: Rattus norvegicus;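 also: cell death triggered by IL-1 beta plus TNF-alpha plus IFN-gamma mixture; protective hits raise ATP signal compared with cytokine alone wells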
[17] = microbe, parasite or virus in culture; type: functional; details: Mycobacterium tuberculosis
BJ [18] = assay: cells; type: functional, cell-based; details: Homo sapiens
[19] = cytotoxicity toward DRD oncogenic fibroblasts, dose response, cell-based, non-viral oncogenic, luminescence (AID 1934); type: functional; details: Homo sapiens
BJ [20] = assay: cytotoxicity toward BJ-TERT-LT-ST fibroblasts, dose response, cell-based, RAS-independent, luminescence (AID 1935); type: functional; details: Homo sapiens;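 also: BJ fibroblasts immortalized with TERT plus LT and ST oncogenes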
[21] = target: Lysine-specific demethylase 4C (Homo sapiens, UniProt Q9H3R0); assay: GASC-1 (JMJD2C) histone demethylase inhibitors, dose response, biochemical, DELFIA europium, cherry-picked samples (AID 488835); type: functional
Lysine-specific demethylase 4C, sequence (Q9H3R0 whole entry): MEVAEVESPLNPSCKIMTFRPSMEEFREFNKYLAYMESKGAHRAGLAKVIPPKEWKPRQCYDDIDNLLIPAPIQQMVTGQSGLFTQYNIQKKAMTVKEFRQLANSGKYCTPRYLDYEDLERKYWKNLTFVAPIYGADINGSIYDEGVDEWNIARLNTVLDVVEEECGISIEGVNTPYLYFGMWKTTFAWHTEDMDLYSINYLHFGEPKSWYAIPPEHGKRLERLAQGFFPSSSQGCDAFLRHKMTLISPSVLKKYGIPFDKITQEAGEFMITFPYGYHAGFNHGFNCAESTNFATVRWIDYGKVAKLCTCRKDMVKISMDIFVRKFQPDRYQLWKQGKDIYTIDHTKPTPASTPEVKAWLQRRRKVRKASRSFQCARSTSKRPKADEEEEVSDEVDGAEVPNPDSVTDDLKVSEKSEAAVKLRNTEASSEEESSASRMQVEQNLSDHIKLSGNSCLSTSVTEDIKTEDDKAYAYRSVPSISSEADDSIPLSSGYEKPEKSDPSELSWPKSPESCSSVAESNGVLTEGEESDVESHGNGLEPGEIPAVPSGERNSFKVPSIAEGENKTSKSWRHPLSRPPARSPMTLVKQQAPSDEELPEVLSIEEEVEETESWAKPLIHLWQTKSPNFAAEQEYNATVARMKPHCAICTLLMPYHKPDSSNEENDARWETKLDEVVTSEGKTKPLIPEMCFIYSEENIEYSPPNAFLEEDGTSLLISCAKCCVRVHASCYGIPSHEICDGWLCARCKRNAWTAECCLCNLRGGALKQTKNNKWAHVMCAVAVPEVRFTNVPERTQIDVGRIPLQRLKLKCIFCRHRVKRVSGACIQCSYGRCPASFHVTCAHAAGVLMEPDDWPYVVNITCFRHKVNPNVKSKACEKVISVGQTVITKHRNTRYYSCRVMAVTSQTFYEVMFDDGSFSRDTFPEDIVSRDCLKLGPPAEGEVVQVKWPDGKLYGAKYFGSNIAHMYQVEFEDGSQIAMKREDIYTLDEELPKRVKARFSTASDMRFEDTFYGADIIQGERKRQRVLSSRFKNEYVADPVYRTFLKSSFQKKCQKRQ

COc1cc(/C=C(\C#N)C(=O)Nc2cccc(C(=O)O)c2)ccc1OCc1ccc(Cl)cc1
IC50 [1]: 6.89 µM (active)
IC50 [2]: 13 µM (active)
IC50 [3]: 2.6 µM (active)
IC50 [4]: > 66.6 µM (inactive)
IC50 [5]: 0.557 µM (active)
IC50 [6]: 6.59 µM (active)
IC50 [7]: 4.78 µM (active)
IC50 (SUMO-activating enzyme [8]): 3.61 µM (active)
IC50 [9]: 2.6 µM (active)
IC50 (SUMO-activating enzyme [10]): 17.5 µM (active)

Cc1ccc(S(=O)(=O)NCc2ccc(C(=O)NCCN(C)[C@H](C)c3ccccc3)cc2)cc1
IC50 [11]: 3.38 µM (active)
IC50 [12]: 2.4 µM (active)

N#C/C(N=Nc1ccccc1O)=N\Nc1ccccc1O
IC50 (cells): 1.29 µM (active)
CC50 [13]: 7.05 µM (active)
AC50 [14]: 3.37 µM (active)
CC50 [15]: 3.15 µM (active)
EC50 (BJ [16]): 5.98 µM (active)
IC50 (Nonstructural protein 1): 10.9 µM (active)
AC50 (INS1): 2.3 µM (active)
CC50 [17]: 4.13 µM (active)
EC50 (BJ [18]): 7.91 µM (active)
EC50 [19]: 8.75 µM (active)
EC50 (BJ [20]): 6.76 µM (active)
AC50 [21]: 0.388 µM (active)
